Test results published in patent publication US20240210394A1, “MICROORGANISM CAPTURE FROM ANTIMICROBIAL-CONTAINING SOLUTION” (MOMENTUM BIOSCIENCE LIMITED, priority 2019, published 2024).

Legend:
Cryptococcus neoformans = assay: Blood culture time to positivity (flip time), bead rescue vs no-rescue control; type: cell-based; conditions: antibiotic 2 mg/L blood; 102200 cfu/5 mL Blood
Method: (§1) Day 1: […] (or 30° C. for C. neoformans) in a shaking incubator. Day 2: […] (or 30° C. for C. neoformans) for 2 h for outgrowth. • Antibiotic added to whole blood (defibrinated horse blood) at required level • Whole blood as no-antibiotic control • Test dilution(s) of organism added to blood+antibiotic or blood only at 10 μL per mL of blood (sufficient prepared for experiment requirements) • 100 μL plate count sample taken (TO sample) • 2-hour incubation (static) at 37° C. […] […] on V&P magnet for 10 min then remove supernatant • 7. […] […] for 3 min then remove supernatant • 9. Resuspend beads in 1 mL Detergent-free Wash Buffer (DWB) off magnet then replace on DynaMag-2 magnet • 10. […] for 3 min then remove supernatant • 11. Resuspend beads in 1 mL DWB, add to new blood culture bottle (using vial adapter) and start incubation (adapter removed) […] The “Flip” time is when a bottle turns positive as determined by the automated blood culture cabinet, which records time to positivity.

Candida albicans = assay: as above; type: cell-based; conditions: 4000 cfu/5 mL Blood
Method: as §1

E. coli [1] = assay: as above; type: cell-based; conditions: for Flip time: Bead rescue; for Bead Rescue Flip time / Control Flip time in Days: antibiotic 0.075 mg/L blood
Method: (§2) Day 1: Prepare overnight culture of test organism in blood/broth medium (50:50 blood:broth) and incubate at 37° C. in a shaking incubator.
Day 2: Prepare ten-fold serial dilution of overnight culture in blood/broth as required and incubate at 37° C. for 2 h for outgrowth.
Add 5 mL of spiked blood+beads (set 1) and 5 mL of spiked blood/Abx+beads (set 3) to blood culture bottles (BioMerieux SA culture bottle) using a vial adapter (West Pharmaceutical Services, Inc. PA, US).
Remove the adaptor and incubate the blood culture bottles in the automated blood culture cabinet (BacT/ALERT BioMerieux) for up to 5 days.
(§3) Record the “Flip” time of each bottle or bottle result at the end of 5 days incubation. The “Flip” time is when a bottle turns positive as determined by the automated blood culture cabinet, which records time to positivity.
(§4) Day 1: Prepare overnight culture of test organism in blood/broth medium (50:50 blood:broth) and incubate at 37° C. (or 30° C. for C. neoformans) in a shaking incubator.
(or 30° C. for C. neoformans) for 2 h for outgrowth. • Antibiotic added to whole blood (defibrinated horse blood) at required level • Whole blood as no-antibiotic control • Test dilution(s) of organism added to blood+antibiotic or blood only at 10 μL per mL of blood (sufficient prepared for experiment requirements) • 100 μL plate count sample taken (TO sample) • 2-hour incubation (static) at 37° C. (or 30° C. for C. neoformans) • 100 μL plate count sample taken (T2 sample) • 5 mL of spiked blood+abx or blood only added to blood culture bottle (using vial adapter) and incubation started (adapter removed) • 5 mL of spiked blood+abx or blood only (from same source) treated with Momentum Capture Beads as below: • 1. Capture Beads diluted in the relevant Capture Reagent—50 μL beads:700 μL capture reagent per clean-up • 2. 750 μL of diluted beads added to 50 mL conical centrifuge tube • 3. 5 mL of transfer medium added to tube • 4. 5 mL of spiked blood+abx or blood only added to tube • 5. […] Magnetise on V&P magnet for 10 min then remove supernatant • 7. Resuspend beads in 1 mL Detergent-free Wash Buffer (DWB) off magnet and transfer to 2 mL Eppendorf flip-top tube on DynaMag-2 magnet • 8. Magnetise for 3 min then remove supernatant • 9. Resuspend beads in 1 mL Detergent-free Wash Buffer (DWB) off magnet then replace on DynaMag-2 magnet • 10. Magnetise for 3 min then remove supernatant • 11. Resuspend beads in 1 mL DWB, add to new blood culture bottle (using vial adapter) and start incubation (adapter removed)
Momentum Capture Beads diluted in the relevant Capture Reagent—50 μL beads:700 μL capture reagent per clean-up • 2. 750 μL of diluted beads added to 50 mL conical centrifuge tube • 3. 5 mL of transfer medium added to tube • 4. 5 mL of spiked blood+abx or blood only added to tube • 5. […] Magnetise on V&P magnet for 10 min then remove supernatant • 7. Resuspend beads in 1 mL Detergent-free Wash Buffer (DWB) off magnet and transfer to 2 mL Eppendorf flip-top tube on DynaMag-2 magnet • 8. Magnetise for 3 min then remove supernatant • 9. Resuspend beads in 1 mL Detergent-free Wash Buffer (DWB) off magnet then replace on DynaMag-2 magnet • 10. Magnetise for 3 min then remove supernatant • 11. Resuspend beads in 1 mL DWB, add to an unused blood culture bottle (BioMerieux FA+culture bottle) using vial adapter and start incubation (adapter removed)

E. coli [2] = conditions: cited from earlier work
S. pneumoniae = assay: Blood culture time to positivity (flip time), bead rescue vs no-rescue control; type: cell-based; conditions: for Flip time: Bead rescue; for Flip time / Flip time in Days: 12600 cfu/5 ml blood; for Flip time in Days: Control (FA plus bottle); for Bead Rescue Flip time / Control Flip time in Days: antibiotic 1 mg/L blood
Method: as §4
(or 30° C. for C. neoformans) for 2 h for outgrowth. • Antibiotic added to whole blood (defibrinated horse blood) at required level • Whole blood as no-antibiotic control • Test dilution(s) of organism added to blood+antibiotic or blood only at 10 μL per mL of blood (sufficient prepared for experiment requirements) • 100 μL plate count sample taken (TO sample) • 2-hour incubation (static) at 37° C. (or 30° C. for C. neoformans) • 100 μL plate count sample taken (T2 sample) • 5 mL of spiked blood+abx or blood only added to blood culture bottle (using vial adapter) and incubation started (adapter removed) • 5 mL of spiked blood+abx or blood only (from same source) treated with Momentum Capture Beads as below: • 1. Capture Beads diluted in the relevant Capture Reagent—50 μL beads:700 μL capture reagent per clean-up • 2. 750 μL of diluted beads added to 50 mL conical centrifuge tube • 3. 5 mL of transfer medium added to tube • 4. 5 mL of spiked blood+abx or blood only added to tube • 5. Incubate on ITL TherMix (32.5° C./30 min/1000 rpm—ramped speed protocol) • 6. Magnetise on V&P magnet for 10 min then remove supernatant • 7. Resuspend beads in 1 mL Detergent-free Wash Buffer (DWB) off magnet and transfer to 2 mL Eppendorf flip-top tube on DynaMag-2 magnet • 8. Magnetise for 3 min then remove supernatant • 9. Resuspend beads in 1 mL Detergent-free Wash Buffer (DWB) off magnet then replace on DynaMag-2 magnet • 10. Magnetise for 3 min then remove supernatant • 11. Resuspend beads in 1 mL DWB, add to new blood culture bottle (using vial adapter) and start incubation (adapter removed)
as §3, §2
Momentum Capture Beads diluted in the relevant Capture Reagent—50 μL beads:700 μL capture reagent per clean-up • 2. 750 μL of diluted beads added to 50 mL conical centrifuge tube • 3. 5 mL of transfer medium added to tube • 4. 5 mL of spiked blood+abx or blood only added to tube • 5. Incubate on ITL TherMix (32.5° C./30 min/1000 rpm—ramped speed protocol) • 6. Magnetise on V&P magnet for 10 min then remove supernatant • 7. Resuspend beads in 1 mL Detergent-free Wash Buffer (DWB) off magnet and transfer to 2 mL Eppendorf flip-top tube on DynaMag-2 magnet • 8. Magnetise for 3 min then remove supernatant • 9. Resuspend beads in 1 mL Detergent-free Wash Buffer (DWB) off magnet then replace on DynaMag-2 magnet • 10. Magnetise for 3 min then remove supernatant • 11. Resuspend beads in 1 mL DWB, add to an unused blood culture bottle (BioMerieux FA+culture bottle) using vial adapter and start incubation (adapter removed)
To compare organism capture and rescue from FA plus bottles, on S. pneumoniae in Ceftriaxone. Reproduce experiment by Flayhart et al. 2007 testing antibiotic concentrations of 250, 125 and 94 mg/L and also include concentrations of 50 and 10 mg/L.
In the table below, “control” represents samples processed using FA plus bottles (also referred to as “BC” in the final column) and “bead rescue” refers to samples processed according to the methods of the invention.

Compound: C[C@@H]1[C@H](O)[C@@H](C)/C=C/C=C/C=C/C=C/C=C/C=C/C=C/[C@H](O[C@@H]2O[C@H](C)[C@@H](O)[C@H](N)[C@@H]2O)C[C@@H]2O[C@](O)(C[C@@H](O)C[C@@H](O)[C@H](O)CC[C@@H](O)C[C@@H](O)CC(=O)O[C@H]1C)C[C@H](O)[C@H]2C(=O)O [Amphoteracin B]
- Bead Rescue Flip time (Cryptococcus neoformans): 3.14 days
- Control Flip time (Cryptococcus neoformans): 3.7 days
- Bead Rescue Flip time (Candida albicans; antibiotic 1 mg/L blood): 1.27 days
- Control Flip time (Candida albicans; antibiotic 1 mg/L blood): 2.22 days
- Bead Rescue Flip time (Candida albicans; antibiotic 2 mg/L blood): 1.85 days
- Control Flip time (Candida albicans; antibiotic 2 mg/L blood): 2.98 days

Compound: CO/N=C(\C(=O)N[C@@H]1C(=O)N2C(C(=O)O)=C(COC(C)=O)CS[C@H]12)c1csc(N)n1 [Cefotaxime]
- Flip time (E. coli [1]; Cefotaxime 100 mg/L blood, 50800 cfu/5 mL blood): 0.39 days
- Flip time (E. coli [1]; Cefotaxime 100 mg/L blood, 508000 cfu/5 mL blood): 0.31 days
- Flip time in Days (E. coli [1]; Control (FA plus bottle), Cefotaxime 100 mg/L blood, 50800 cfu/5 mL blood): Neg
- Flip time in Days (E. coli [1]; Control (FA plus bottle), Cefotaxime 100 mg/L blood, 508000 cfu/5 mL blood): Neg
- MIC (E. coli [2]): ≤1 µg/mL

Compound: CO/N=C(\C(=O)N[C@@H]1C(=O)N2C(C(=O)O)=C(CSc3nc(=O)c(=O)[nH]n3C)CS[C@H]12)c1csc(N)n1 [Ceftriaxone]
- Flip time (S. pneumoniae; Ceftriaxone 10 mg/L blood): 0.46 days
- Flip time (S. pneumoniae; Ceftriaxone 50 mg/L blood): 0.47 days
- Flip time (S. pneumoniae; Ceftriaxone 94 mg/L blood): 0.52 days
- Flip time (S. pneumoniae; Ceftriaxone 125 mg/L blood): 0.49 days
- Flip time (S. pneumoniae; Ceftriaxone 250 mg/L blood): 0.51 days
- Flip time in Days (S. pneumoniae; Ceftriaxone 10 mg/L blood): Neg
- Flip time in Days (S. pneumoniae; Ceftriaxone 50 mg/L blood): Neg
- Flip time in Days (S. pneumoniae; Ceftriaxone 94 mg/L blood): Neg
- Flip time in Days (S. pneumoniae; Ceftriaxone 125 mg/L blood): Neg
- Flip time in Days (S. pneumoniae; Ceftriaxone 250 mg/L blood): Neg

Compound: CO/N=C(\C(=O)N[C@@H]1C(=O)N2C(C(=O)O)=C(CSc3nc(=O)c(O)nn3C)CS[C@H]12)c1csc(N)n1 [Celtriaxone]
- Bead Rescue Flip time (S. pneumoniae; 200 cfu/5 mL Blood): 0.86 days
- Control Flip time in Days (S. pneumoniae; 200 cfu/5 mL Blood): Neg
- Bead Rescue Flip time (S. pneumoniae; 10000 cfu/5 mL Blood): 0.71 days
- Control Flip time in Days (S. pneumoniae; 10000 cfu/5 mL Blood): Neg
- Bead Rescue Flip time (S. pneumoniae; 100000 cfu/5 mL Blood): 0.68 days
- Control Flip time in Days (S. pneumoniae; 100000 cfu/5 mL Blood): Neg

Compound: O=C(O)c1cn(C2CC2)c2cc(N3CCNCC3)c(F)cc2c1=O [Ciprofloxacin]
- Flip time In Days (E. coli [1]; Ciprofloxacin 0.075 mg/L blood, 11400 Cfu/mL (first set, r5-r10), bead rescue with named bead type, antibiotic-labelled line = BC control without beads): Negative
- Flip time In Days (E. coli [1]; Ciprofloxacin 0.075 mg/L blood, 11400 Cfu/mL (second set, r11-r16), bead rescue with named bead type, antibiotic-labelled line = BC control without beads): Negative
- Difference (Days) compared to BE (E. coli [1]; Ciprofloxacin 0.075 mg/L blood, 380800 Cfu/mL (some rows print 360800), antibiotic-labelled line = BC control without beads): Negative
- Flip time in Days (E. coli [1]; Ciprofloxacin 0.075 mg/L blood, 380800 Cfu/mL (some rows print 360800), bead rescue with named bead type, antibiotic-labelled line = BC control without beads): Negative
- Difference (Days) compared to BE (E. coli [1]; Ciprofloxacin 0.075 mg/l blood, 11400 Cfu/mL (first set, r5-r10), antibiotic-labelled line = BC control without beads): Negative
- Difference (Days) compared to BE (E. coli [1]; Ciprofloxacin 0.075 mg/l blood, 11400 Cfu/mL (second set, r11-r16), antibiotic-labelled line = BC control without beads): Negative
- No-rescue blood culture control result (E. coli [1]; Example 23, E. coli in blood containing 0.075 mg/L Ciprofloxacin): negative after 5 days
- Blood culture controls (no bead rescue) result (E. coli [1]; Example 24, E. coli in blood containing 0.075 mg/L Ciprofloxacin): negative
- Bead Rescue Flip time (E. coli [1]; 100000 cfu/5 mL Blood): 0.68 days
- Control Flip time in Days (E. coli [1]; 100000 cfu/5 mL Blood): Neg
- Bead Rescue Flip time (E. coli [1]; 1000000 cfu/5 mL Blood): 0.61 days
- Control Flip time in Days (E. coli [1]; 1000000 cfu/5 mL Blood): Neg
